# Measured values from article PMC7957578, “N-(1,3,4-Oxadiazol-2-yl)Benzamides as Antibacterial Agents against Neisseria gonorrhoeae” (International Journal of Molecular Sciences, 2021).
# Like-named read-outs stand apart in the source and are kept apart here.
# What was measured:
# [1] = test system: E. coli BW25113 (wild-type strain); assay: MIC/MBC (CLSI broth microdilution) against E. coli BW25113 wild type; type: cell-based, Escherichia coli
# Procedure: (§1) The minimum inhibitory concentrations (MICs) of the tested compounds and control drugs, linezolid, vancomycin, and gentamicin, were determined using the broth microdilution method according to the guidelines outlined by the Clinical and Laboratory Standards Institute (CLSI) against clinically relevant bacterial (Staphylococcus aureus, MRSA, Escherichia coli, Enterococcus faecalis and Enterococcus faecium strains. S. aureus, MRSA, E. coli, Enterococcus faecalis and Enterococcus faecium were grown aerobically overnight on tryptone soy agar (TSA) plates at 37° C. Afterwards, a bacterial solution equivalent to 0.5 McFarland standard was prepared and diluted in cation-adjusted Mueller–Hinton broth (CAMHB) (for S. aureus, MRSA, and E. coli) to achieve a bacterial concentration of about 5 × 10^5 CFU/mL. Enterococcus faecalis and Enterococcus faecium 0.5 McFarland standard solution was diluted in tryptone soy broth (TSB) to achieve a bacterial concentration of about 5 × 10^5 CFU/mL. Compounds and control drugs were added in the first row of 96-well plates and serially diluted with the corresponding media containing bacteria. Plates were then incubated as previously described. […] The minimum bactericidal concentration (MBC) was tested by spotting 4 µL from wells with no growth onto TSA plates. Plates were incubated at 37 ° C for at least 18 h before recording the MBC. The MBC was categorized as the lowest concentration that reduced bacterial growth by 99.9% [45, 46, 47].
# [2] = test system: E. coli JW55031 (TolC Mutant); assay: MIC/MBC (CLSI broth microdilution) against E. coli TolC mutant; type: cell-based; conditions: Escherichia coli
# Procedure: as §1
# [3] = test system: N. gonorrhoeae strain 181; assay: MIC by broth microdilution against N. gonorrhoeae strain 181; type: cell-based, Neisseria gonorrhoeae; conditions: N. gonorrhoeae strain 181
# Procedure: (§2) Briefly, bacteria were grown overnight on chocolate agar II at 37° C in the presence of 5% CO2. Afterwards, a bacterial suspension equivalent to 1.0 McFarland standard was prepared and diluted in brucella broth supplemented with yeast extract, neopeptone, hematin, pyridoxal, and NAD. Test agents were added in the first row of the 96-well plates and serially diluted along the plates. Plates were then incubated at 37° C in the presence of 5% CO2 for 24 h. […] Plates were then incubated at 37 ° C in the presence of 5% CO2 for 24 h. The MBC was categorized as the lowest concentration that reduced bacterial growth by 99.9% [45, 46, 47].
# N. gonorrhoeae 165 = assay: MIC/MBC against N. gonorrhoeae clinical isolate 165; type: cell-based; conditions: Neisseria gonorrhoeae
# Procedure: as §2
# N. gonorrhoeae 166 = assay: MIC/MBC against N. gonorrhoeae clinical isolate 166; type: cell-based; conditions: Neisseria gonorrhoeae
# Procedure: as §2
# N. gonorrhoeae 194 = assay: MIC/MBC against N. gonorrhoeae clinical isolate 194; type: cell-based; conditions: Neisseria gonorrhoeae
# Procedure: as §2
# N. gonorrhoeae 197 = assay: MIC/MBC against N. gonorrhoeae clinical isolate 197; type: cell-based; conditions: Neisseria gonorrhoeae
# Procedure: as §2
# N. gonorrhoeae 200 = assay: MIC/MBC against N. gonorrhoeae clinical isolate 200; type: cell-based; conditions: Neisseria gonorrhoeae
# Procedure: as §2
# N. gonorrhoeae WHO L = assay: MIC/MBC against N. gonorrhoeae WHO L reference strain; type: cell-based; conditions: Neisseria gonorrhoeae
# Procedure: as §2
# [4] = test system: panel drug-resistant pathogenic N. gonorrhoeae strains; assay: MIC/MBC against a panel of drug-resistant N. gonorrhoeae strains; type: cell-based, Neisseria gonorrhoeae; conditions: MBC the same as or one-fold higher than MIC
# S. aureus ATCC 25923 = assay: MIC/MBC (CLSI broth microdilution) against S. aureus ATCC 25923; type: cell-based; conditions: Staphylococcus aureus, ATCC25923
# Procedure: as §1
# MRSA USA300 = assay: MIC/MBC (CLSI broth microdilution) against MRSA USA300; type: cell-based, methicillin-resistant Staphylococcus aureus; conditions: Staphylococcus aureus
# Procedure: as §1
# E. faecalis ATCC 29212 = assay: MIC/MBC (CLSI broth microdilution) against E. faecalis ATCC 29212; type: cell-based; conditions: Enterococcus faecalis, ATCC29212
# Procedure: as §1
# VRE. faecalisATCC 51575 = assay: MIC/MBC (CLSI broth microdilution) against VRE faecalis ATCC 51575; type: cell-based; conditions: Enterococcus
# Procedure: as §1
# VRE. faecalis ATCC 51299 = assay: MIC/MBC (CLSI broth microdilution) against VRE faecalis ATCC 51299; type: cell-based; conditions: Enterococcus
# Procedure: as §1
# VRE. faecium ATCC 700221 = assay: MIC/MBC (CLSI broth microdilution) against VRE faecium ATCC 700221; type: cell-based; conditions: Enterococcus
# Procedure: as §1
# [5] = test system: L. monocytogenes ATCC 19115; assay: MIC/MBC (CLSI broth microdilution) against L. monocytogenes ATCC 19115; type: cell-based; conditions: Listeria monocytogenes, ATCC19115
# N. gonorrhoeae = assay: MIC against N. gonorrhoeae in presence of fetal bovine serum; type: cell-based; conditions: Neisseria gonorrhoeae, 24 h
# [6] = test system: tested bacterial strains (Table 3); assay: MBC versus MIC against the panel of Gram-positive and Gram-negative pathogens; type: cell-based; conditions: MBCs more than three-fold higher than MICs, strains of Table 3
# Procedure: While the focus of these new N-(1,3,4-oxadiazol-2-yl)benzamides is towards N. gonorrhoeae, we proceeded to test their activity against other Gram-positive and Gram-negative pathogens. Intriguingly, HSGN-235, HSGN-237, and HSGN-238 had potent activity against the tested Gram-positive bacterial pathogens. For instance, all three compounds had potent activity against the staphylococcal strains, with MICs ranging from 0.25 to 1 µg/mL (Table 3). Furthermore, HSGN-235, HSGN-237, and HSGN-238 maintained potent activity against clinically relevant Gram-positive bacterial pathogens such as vancomycin-resistant enterococci (VRE) and Listeria monocytogenes (Table 3). Additionally, we moved to test if HSGN-235, HSGN-237, and HSGN-238 were active against other Gram-negative bacterial pathogens. […] This lack of activity against Gram-negative bacteria appears to be due to HSGN-235, HSGN-237, and HSGN-238 being a substrate for efflux.
# The minimum inhibitory concentrations (MICs) of the tested compounds and control drugs, linezolid, vancomycin, and gentamicin, were determined using the broth microdilution method according to the guidelines outlined by the Clinical and Laboratory Standards Institute (CLSI) against clinically relevant bacterial (Staphylococcus aureus, MRSA, Escherichia coli, Enterococcus faecalis and Enterococcus faecium strains. S. aureus, MRSA, E. coli, Enterococcus faecalis and Enterococcus faecium were grown aerobically overnight on tryptone soy agar (TSA) plates at 37° C. Afterwards, a bacterial solution equivalent to 0.5 McFarland standard was prepared and diluted in cation-adjusted Mueller–Hinton broth (CAMHB) (for S. aureus, MRSA, and E. coli) to achieve a bacterial concentration of about 5 × 10^5 CFU/mL. Enterococcus faecalis and Enterococcus faecium 0.5 McFarland standard solution was diluted in tryptone soy broth (TSB) to achieve a bacterial concentration of about 5 × 10^5 CFU/mL. Compounds and control drugs were added in the first row of 96-well plates and serially diluted with the corresponding media containing bacteria. […]
# [7] = Escherichia coli, E. coli BW25113 wild-type strain, read-out: MBC
# [8] = Escherichia coli, E. coli BW25113 wild-type strain, read-out: MIC
# [9] = Neisseria gonorrhoeae, read-out: MIC
# [10] = S. aureus ATCC 25923, read-out: MBC
# [11] = S. aureus ATCC 25923, read-out: MIC
# [12] = E. faecalis ATCC 29212, read-out: MBC
# [13] = E. faecalis ATCC 29212, read-out: MIC
# [14] = VRE faecalis ATCC 51575, read-out: MBC
# [15] = VRE faecalis ATCC 51575, read-out: MIC
# [16] = VRE faecalis ATCC 51299, read-out: MBC
# [17] = VRE faecalis ATCC 51299, read-out: MIC
# [18] = VRE faecium ATCC 700221, read-out: MBC
# [19] = VRE faecium ATCC 700221, read-out: MIC
# [20] = L. monocytogenes ATCC 19115, read-out: MBC
# [21] = L. monocytogenes ATCC 19115, read-out: MIC
Compound,"MBC [1, 7] [µg/mL]","MIC [1, 8] [µg/mL]",MBC [2] [µg/mL],MIC [2] [µg/mL],"MIC [3, 9] [µg/mL]",MBC (N. gonorrhoeae 165) [µg/mL],MIC (N. gonorrhoeae 165) [µg/mL],MBC (N. gonorrhoeae 166) [µg/mL],MIC (N. gonorrhoeae 166) [µg/mL],MBC (N. gonorrhoeae 194) [µg/mL],MIC (N. gonorrhoeae 194) [µg/mL],MBC (N. gonorrhoeae 197) [µg/mL],MIC (N. gonorrhoeae 197) [µg/mL],MBC (N. gonorrhoeae 200) [µg/mL],MIC (N. gonorrhoeae 200) [µg/mL],MBC (N. gonorrhoeae WHO L) [µg/mL],MIC (N. gonorrhoeae WHO L) [µg/mL],MBC (S. aureus ATCC 25923; [10]) [µg/mL],MIC (S. aureus ATCC 25923; [11]) [µg/mL],"MBC (MRSA USA300; MRSA USA300, read-out: MBC) [µg/mL]",other results
"CNC(C)C1CCC(N)C(OC2C(N)CC(N)C(OC3OCC(C)(O)C(NC)C3O)C2O)O1 (stereo not drawn) [Gentamicin, gentamicin, reference compound]",0.25,0.25,0.25,0.25,,,,,,,,,,,,,,,,,
"O=C(Nc1nnc(-c2ccc(C(F)(F)F)cc2)o1)c1ccc(OC(F)(F)F)c(F)c1 [HSGN-235, 3-Fluoro-4-(trifluoromethoxy)-N-(5-(4-(trifluoromethyl)phenyl)-1,3,4-oxadiazol-2-yl)benzamide]",> 8,> 8,> 64,4,16,2,2,2,2,1,1,2,1,2,2,2,1,> 64,1,64,"MIC [3]: moderate activity; type of activity from MBC versus MIC [4]: bactericidal activity; MIC (MRSA USA300; MRSA USA300, read-out: MIC): 0.5 µg/mL; MBC (E. faecalis ATCC 29212; [12]): 32 µg/mL; MIC (E. faecalis ATCC 29212; [13]): 4 µg/mL; MBC (VRE. faecalisATCC 51575; [14]): > 64 µg/mL; MIC (VRE. faecalisATCC 51575; [15]): 2 µg/mL; MBC (VRE. faecalis ATCC 51299; [16]): 64 µg/mL; MIC (VRE. faecalis ATCC 51299; [17]): 1 µg/mL; MBC (VRE. faecium ATCC 700221; [18]): 32 µg/mL; MIC (VRE. faecium ATCC 700221; [19]): 1 µg/mL; MBC [5, 20]: 64 µg/mL; MIC [5, 21]: 1 µg/mL; MIC ([1]; E. coli BW25113 wild-type strain): >8 µg/mL; MIC (N. gonorrhoeae; 5% FBS added to the media): 4 µg/mL; MIC (N. gonorrhoeae; 10% FBS added to the media): 8 µg/mL; type of activity from MBC versus MIC [6]: bacteriostatic agents"
"CC(=O)NC[C@H]1CN(c2ccc(N3CCOCC3)c(F)c2)C(=O)O1 [Linezolid, linezolid, reference compound]",> 64,> 64,> 64,8,,,,,,,,,,,,,,64,2,16,"MIC (MRSA USA300; MRSA USA300, read-out: MIC): 1 µg/mL; MBC (E. faecalis ATCC 29212; [12]): 64 µg/mL; MIC (E. faecalis ATCC 29212; [13]): 2 µg/mL; MBC (VRE. faecalisATCC 51575; [14]): 64 µg/mL; MIC (VRE. faecalisATCC 51575; [15]): 2 µg/mL; MBC (VRE. faecalis ATCC 51299; [16]): 32 µg/mL; MIC (VRE. faecalis ATCC 51299; [17]): 1 µg/mL; MBC (VRE. faecium ATCC 700221; [18]): 64 µg/mL; MIC (VRE. faecium ATCC 700221; [19]): 2 µg/mL; MBC [5, 20]: 64 µg/mL; MIC [5, 21]: 2 µg/mL"
"CN(C)[C@@H]1C(O)=C(C(N)=O)C(=O)[C@@]2(O)C(O)=C3C(=O)c4c(O)cccc4[C@@](C)(O)[C@H]3C[C@@H]12 [Tetracycline, tetracycline, reference compound]",,,,,2,8,4,8,2,4,1,4,2,8,2,2,0.5,,,,
"CN[C@H](CC(C)C)C(=O)N[C@H]1C(=O)N[C@@H](CC(N)=O)C(=O)N[C@H]2C(=O)N[C@H]3C(=O)N[C@H](C(=O)N[C@H](C(=O)O)c4cc(O)cc(O)c4-c4cc3ccc4O)[C@H](O)c3ccc(c(Cl)c3)Oc3cc2cc(c3O[C@@H]2O[C@H](CO)[C@@H](O)[C@H](O)[C@H]2O[C@H]2C[C@](C)(N)[C@H](O)[C@H](C)O2)Oc2ccc(cc2Cl)[C@H]1O [Vancomycin, vancomycin, reference compound]",,,> 64,> 64,,,,,,,,,,,,,,,,,"MBC (S. aureus ATCC 25923): 1 µg/mL; MIC (S. aureus ATCC 25923): 1 µg/mL; MBC (MRSA USA300): 2 µg/mL; MIC (MRSA USA300): 1 µg/mL; MBC (E. faecalis ATCC 29212): 1 µg/mL; MIC (E. faecalis ATCC 29212): 1 µg/mL; MBC (VRE. faecalisATCC 51575): > 64 µg/mL; MIC (VRE. faecalisATCC 51575): > 64 µg/mL; MBC (VRE. faecalis ATCC 51299): > 64 µg/mL; MIC (VRE. faecalis ATCC 51299): > 64 µg/mL; MBC (VRE. faecium ATCC 700221): 32 µg/mL; MIC (VRE. faecium ATCC 700221): 32 µg/mL; MBC [5]: 1 µg/mL; MIC [5]: 1 µg/mL; MBC ([1]; Escherichia coli, BW25113): > 64 µg/mL; MIC ([1]; Escherichia coli, BW25113): > 64 µg/mL"
